Test systems include SK-OV-3 ovarian; SK-MEL-28 melanoma; CAKI-1 renal; SF-268 CNS; TK-10 renal; SF-539 CNS; U251 CNS; OVCAR-3 ovarian; CCRF-CEM leukemia; UO-31 renal.
Holding throughout (assay): NCI tumour cell line growth inhibition, 48 h

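Each compound was tested at five concentrations against cells in 96-well plates for 48 hours. At the GI50, growth is halved. The concentration for full growth arrest is given as TGI.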

For the compound `CCOC(=O)c1c(-c2ccccc2)[n+](=O)c2cc(F)c(F)cc2n1[O-]`, the GI50 was 2.03 µM with SK-OV-3 ovarian; 1.73 µM in the test on SK-MEL-28 melanoma; 1.61 µM in the test on CAKI-1 renal; 1.66 µM in the test on SF-268 CNS; 16.6 µM in the test on TK-10 renal; 1.95 µM with SF-539 CNS. The GI50 with U251 CNS is 1.25 µM; in the test with OVCAR-3 ovarian it was 1.23 µM. The TGI amounted to 3.57 µM with SK-OV-3 ovarian; 3.34 µM in the test with SK-MEL-28 melanoma; 3.12 µM in the test on CAKI-1 renal; 4.07 µM in the test with SF-268 CNS; 32 µM in the test on TK-10 renal; 3.68 µM in the test on SF-539 CNS. Further, the TGI was 2.71 µM with U251 CNS and 2.61 µM with OVCAR-3 ovarian.

Regarding `N#C/C(=C/N1CCN(C(=O)c2ccco2)C1=S)C(=O)Nc1ccc(Cl)cc1`, the GI50 in the test with SK-OV-3 ovarian was 41.2 µM; in the test on CCRF-CEM leukemia, 22.5 µM; in the test with SK-MEL-28 melanoma, 18.7 µM; in the test with CAKI-1 renal it was 13.2 µM; with SF-268 CNS it was 17.8 µM; with UO-31 renal it was 12 µM. Besides, the GI50 was 19.4 µM with TK-10 renal, 17.3 µM in the test with U251 CNS and 15.5 µM in the test with OVCAR-3 ovarian. Further, the TGI with SK-OV-3 ovarian was above 50 µM; with CCRF-CEM leukemia, above 50 µM; with SK-MEL-28 melanoma, above 50 µM; with CAKI-1 renal it was above 50 µM; in the test with SF-268 CNS it was 41 µM; in the test on UO-31 renal, 26.6 µM. Besides, the TGI with TK-10 renal, in the test on U251 CNS and in the test with OVCAR-3 ovarian was above 50 µM each time.

Take `COc1ccc(-c2cc3ccccc3[nH]c2=O)cc1OC`: the TGI with SK-OV-3 ovarian, in the test on CCRF-CEM leukemia, with SK-MEL-28 melanoma, in the test with CAKI-1 renal, in the test with SF-268 CNS and with UO-31 renal was above 100 µM throughout. Further, the TGI in the test with TK-10 renal, in the test on SF-539 CNS and with U251 CNS was above 100 µM in each case.

As to `COc1cc(C2c3cc4c(cc3OC(O)C2C)OCO4)cc(OC)c1OC` (stereo not drawn), the TGI in the test on SK-OV-3 ovarian was 23.3 µM; with SK-MEL-28 melanoma, above 100 µM; in the test on CAKI-1 renal, 37.4 µM; in the test on SF-268 CNS it was above 58.9 µM; in the test with UO-31 renal, 40.7 µM; in the test on TK-10 renal, above 100 µM. Further, the values for the TGI in the test with SF-539 CNS, in the test with U251 CNS and in the test on OVCAR-3 ovarian were 0.92 µM, above 40.1 µM and 5.25 µM, respectively.

`CCN(CC)CCCNCc1cc(-c2ccccc2)nc2cc(Cl)ccc12`: the GI50 in the test with SK-OV-3 ovarian is 11.7 µM; in the test on SK-MEL-28 melanoma, 1.72 µM; in the test on CAKI-1 renal it was 2.35 µM; in the test with SF-268 CNS it was 3.05 µM; in the test on UO-31 renal it was 1.78 µM; with TK-10 renal, 3.27 µM. The GI50 in the test with SF-539 CNS is 1.02 µM; in the test on U251 CNS, 2.39 µM; with OVCAR-3 ovarian, 7.58 µM. In addition, the TGI was determined as 24.1 µM in the test on SK-OV-3 ovarian; 3.11 µM with SK-MEL-28 melanoma; 11.2 µM in the test on CAKI-1 renal; 12.9 µM with SF-268 CNS; 11.5 µM with UO-31 renal; 10.2 µM in the test with TK-10 renal. The values for the TGI in the test on SF-539 CNS, with U251 CNS and in the test with OVCAR-3 ovarian were 2.55 µM, 6.67 µM and 20.5 µM, respectively.

For `CN1CCN(Cc2ccc(NC(=O)c3[nH]ncc3Nc3ncnc4[nH]ccc34)cc2)CC1`, the GI50 in the test on CCRF-CEM leukemia is 0.254 µM; in the test on SK-MEL-28 melanoma, 0.411 µM; with CAKI-1 renal it was 1.83 µM; in the test on SF-268 CNS, 0.374 µM; in the test on UO-31 renal, 0.82 µM; with TK-10 renal, 0.562 µM. The figures for the GI50 in the test on SF-539 CNS, in the test on U251 CNS and in the test with OVCAR-3 ovarian were 0.133 µM, 0.251 µM and 0.255 µM, respectively. Further, the TGI was found to be 5.68 µM in the test on CCRF-CEM leukemia; 4.24 µM in the test with SK-MEL-28 melanoma; 8.19 µM with CAKI-1 renal; 1.42 µM in the test with SF-268 CNS; 4.57 µM in the test on UO-31 renal; 2.37 µM in the test on TK-10 renal. The figures for the TGI with SF-539 CNS, in the test on U251 CNS and with OVCAR-3 ovarian were 0.429 µM, 10.7 µM and 0.797 µM, respectively.

With `C=CC1C(CC2OC(CO)C(O)C(O)C2O)OC=C2C(=O)OCCC21O` (stereo not drawn), the GI50 was 46.6 µM with SK-OV-3 ovarian; 5.32 µM with CCRF-CEM leukemia; 0.116 µM in the test with SK-MEL-28 melanoma; 30.6 µM in the test on CAKI-1 renal; 24.3 µM with SF-268 CNS; 16.4 µM with UO-31 renal. The GI50 in the test with TK-10 renal is 26 µM; in the test with U251 CNS, 13.2 µM; in the test on OVCAR-3 ovarian, 12.4 µM. The TGI in the test with SK-OV-3 ovarian is above 100 µM; in the test on CCRF-CEM leukemia, 28.9 µM; with SK-MEL-28 melanoma, 19.2 µM; in the test on CAKI-1 renal it was 78.7 µM; in the test on SF-268 CNS, 89 µM; with UO-31 renal, above 100 µM. Moreover, the TGI is 90.3 µM in the test on TK-10 renal, 28 µM with U251 CNS and 27.6 µM in the test on OVCAR-3 ovarian.

For the compound `CC1CCCC(C#N)(NOC2=NCCN2)C1` (stereo not drawn), the GI50 in the test on CCRF-CEM leukemia was 53.8 µM; in the test with SK-MEL-28 melanoma, above 100 µM; with CAKI-1 renal it was 22.7 µM; with SF-268 CNS, 60.3 µM; with UO-31 renal, 31.8 µM; in the test with TK-10 renal, 12.9 µM. The GI50 was 15.5 µM in the test on SF-539 CNS, 23.4 µM with U251 CNS and 43 µM in the test on OVCAR-3 ovarian. Further, the TGI with CCRF-CEM leukemia is above 100 µM; in the test with SK-MEL-28 melanoma, above 100 µM; in the test on CAKI-1 renal, 79 µM; in the test with SF-268 CNS it was above 100 µM; in the test on UO-31 renal it was above 100 µM; with TK-10 renal, 46.2 µM. The TGI in the test on SF-539 CNS was 40.4 µM; in the test with U251 CNS, 78.7 µM; with OVCAR-3 ovarian it was above 100 µM.

Turning to `CC(C)C1(NC(=O)C2CC3c4cccc5[nH]cc(c45)CC3N(C)C2)OC2(O)C3CCCN3C(=O)C(Cc3ccccc3)N2C1=O` (stereo not drawn), the TGI with CCRF-CEM leukemia, in the test on SK-MEL-28 melanoma, in the test on CAKI-1 renal, in the test with SF-268 CNS, in the test on UO-31 renal and with TK-10 renal was above 100 µM each time. Moreover, the TGI in the test with SF-539 CNS, in the test with U251 CNS and in the test on OVCAR-3 ovarian was above 100 µM each time.

With `CC1=C(CO)C(=O)O[C@@H]([C@@H](C)[C@H]2CC[C@H]3[C@@H]4C[C@H]5O[C@]56[C@@H](O)C=CC(=O)[C@]6(C)[C@H]4CC[C@]23C)C1`, the GI50 in the test on SK-OV-3 ovarian was 3.93 µM. Also, the TGI in the test on SK-OV-3 ovarian was 13.8 µM; in the test on SK-MEL-28 melanoma, 2.29 µM; in the test with CAKI-1 renal, 0.773 µM; in the test with SF-268 CNS, 1.29 µM; in the test with UO-31 renal it was 1.31 µM; with TK-10 renal, 1.99 µM. In addition, the TGI worked out at 2.3 µM with SF-539 CNS, 1.52 µM in the test with U251 CNS and 0.792 µM with OVCAR-3 ovarian.

Source of the values: PubChem BioAssay (NCI).
